Here are results for two compounds from US7598033B2, “Method and devices for running reactions on a target plate for MALDI mass spectrometry” (University of Pennsylvania, priority 2003, dated 2009).

The target of one series is thrombin (Homo sapiens, UniProt P00734). Nature of the series: Nanoliter thrombin/fibrinogen reaction on MALDI target, MS detection of fibrinopeptides A and B. Particulars: benzamidine in the nanoliter reaction, FIG. 26B. It is filed as biochemical.
Series [1] can be described thus: Fluorogenic substrate microarray, aerosol deposition of enzyme: boc-VPR-MCA. It is filed as biochemical. Particulars: after spray application. The procedure: Well characterized for over 30 years, serine proteases of the coagulation pathway in plasma were selected as a system in which to monitor the delivery of complex enzyme fluids to the microassay. Fluorogenic substrates in DMSO/glycerol were assayed to a glass slide.
After spray application, thrombin caused a 65-fold increase in fluorescence activity after conversion of the boc-VPR-MCA substrate. […] Aerosol deposition of pure tPA (10 μM) to a sensing array caused significant cleavage of the tPA, thrombin and Xa substrates, resulting in fluorescence that was 18- to 20-fold above background.

Experimental for thrombin: The glycerol in the reaction was then removed, and MALDI matrix was deposited to result in a thin film suitable (FIG. 26A) for MS detection of FPA/FPB.
A 8×12 array of reactions were printed using an OmniGrid microarrayer containing varying concentrations of fibrinogen and a fibrinopeptide MS satandard. Certain reactions contained 1 mM benzamidine. The array was activated with thrombin and incubated under humidity (top row, A), the glycerol was removed (middle row, A), and then coated with MALDI matrix (bottom row, A). […] Conditions of the MALDI MS were: Voyager-DE PRO (sinapinic acid matrix), Glu1-Fibrinopeptide B (1 ug/ml) control, Reflector Mode, Positive Polarity, 1000-2000 Da Acquisition Range, 20000 V Accelerating voltage, 2033 laser intensity (20.0 Hz; 100/spectrum), Extraction delay time: 150 nsec, Grid voltage: 75%, Guide wire voltage: 0.002%.

As to `N=C(N)c1ccccc1` [Benzamidine], at thrombin, the “inhibition of thrombin release of fibrinopeptides A and B from fibrinogen” value is recorded as “completely inhibited”.

For the compound thrombin, in series [1], the “increase in fluorescence activity after conversion of the boc-VPR-MCA substrate” value stood at 65 fold.
